Test results: US9187455B2, “Substituted pyridazines as PDE10A inhibitors” (Hoffmann-La Roche Inc., priority 2009, dated 2015)

biological target: T1, PDE10A2 (Homo sapiens, UniProt Q9Y233); assay: PDE10A2 Scintillation Proximity Assay (SPA), [3H]-cGMP hydrolysis; type: biochemical; conditions: catalytic domain of human PDE10A2 (S449-D789), 0.25 nM enzyme, 50 nM cGMP + 50 nM [3H]-cGMP, 30 minutes at room temperature; read-out: PDE10A2 inhibition IC50
T1 construct: residues serine 449 to aspartate 789; His6 (H6) with Gateway linker and thrombin cleavage site (N, cleaved yes); made in house; host or cells: E. coli BL21(DE3) pLysS
Description: The following tests were carried out in order to determine the activity of the compounds of the present invention. PDE10 activity of the compounds of the present invention is determined using a Scintillation Proximity Assay (SPA)-based method similar to the one previously described (Fawcett, L. et al., ProcNatl Acad Sci USA (2000) 97(7):3702-3707).
PDE10A1 and PDE10A2 are two splice variants of PDE10A. There are these 2 splice variants known, which differ in the N-terminal part of the protein. The catalytic domains of PDE10A1 and PDE10A2 are identical. The assay for PDE10A2 described below is therefore also representative for PDE10A1 and also for PDE10A in general.
The PDE10A2 assay was performed in a two step procedure in 96-well micro titer plates. The reaction mixture of 80 μl contained 20 mM HEPES/10 mM MgCl2/[…] (pH 7.5), 50 nM cGMP (Sigma) and 50 nM [^3H]-cGMP (GE Healthcare), 0.25 nM PDE10A2 with or without a specific test compound. A range of concentrations of the potential inhibitor was used to generate data for calculating the concentration of inhibitor resulting in 50% of the effect (e.g. IC50, the concentration of the competitor inhibiting PDE10A2 activity 50%). Non-specific activity was tested without the enzyme. The reaction was initiated by addition of the substrate solution (cGMP and [^3H]-cGMP) and allowed to progress for 30 minutes at room temperature. The reaction was terminated by transferring 50 μl of the reaction mixture into an OptiPlate (Perkin Elmer) containing 25 μl of YSi-SPA scintillation beads (GE Healthcare) in 18 mM zinc sulphate solution (stop reagent). After 1 h under shaking, the plate was centrifuged one minute at 1000 rpm to allow beads to settle. Afterwards, radioactive counts were measured on a Perkin Elmer TopCount Scintillation plate reader.
The catalytic domain of human PDE10A2, residues serine 449 to aspartate 789, was amplified by PCR using cDNA (Origene) and the oligonucleotides 5′-GGGGACAAGTTTGT […]-3′ (with AttB1 recombination site in bold and thrombin protease cleavage site in italics) and 5′-[…]-3′ (with AttB2 recombination site in bold) which conferred Gateway recombination sites. The PCR product was used in a BP recombination reaction with pDONR221 to generate pENTR Thm-PDE10A2(S449-D789) which was DNA sequence verified and then used in an LR recombination reaction with a Gateway modified version of pET11a. The resulting expression vector, placT7.2H6-(gwl)-Thm-PDE10A2(S449-D789) was DNA sequence confirmed and transformed into E. coli strain BL21(DE3) pLysS and recombinant protein was produced in TB medium at 20° C. by induction to a final IPTG concentration of 0.5 mM at an optical density of 1.0 at 600 nm for 20 hours. About 30% of the protein was in the soluble fraction of the cell homogenate. The protein was purified using sequential chromatography on Ni-NTA and HiTrapQ/HiTrapS. After thrombin digest at room temperature a HiTrapChelating/HiTrap Benzamindin chromatography removed impurities, uncleaved protein and thrombin. Final purification of PDE10A2(S449-D789) was performed on a Superdex 75 size exclusion chromatography equilibrated with 25 mM HEPES pH 8.4, 0.15 M NaCl. The yield of pure protein was 2 mg/liter of culture volume is relatively low. The purity of the protein was >95%, monomeric and monodisperse as shown by SDS-PAGE, HPLC and analytical ultracentrifugation.

T1 sequence (Q9Y233 715-1055): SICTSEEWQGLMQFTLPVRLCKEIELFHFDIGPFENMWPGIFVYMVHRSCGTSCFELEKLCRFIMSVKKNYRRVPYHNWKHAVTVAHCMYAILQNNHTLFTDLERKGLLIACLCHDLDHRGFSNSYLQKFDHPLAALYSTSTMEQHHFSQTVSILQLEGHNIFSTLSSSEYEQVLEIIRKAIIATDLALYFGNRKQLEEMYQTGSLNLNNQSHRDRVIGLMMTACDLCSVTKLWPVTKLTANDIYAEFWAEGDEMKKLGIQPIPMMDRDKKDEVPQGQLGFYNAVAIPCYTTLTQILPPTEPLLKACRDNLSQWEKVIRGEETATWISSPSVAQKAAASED

| Structure (SMILES) | IC50 |
| --- | --- |
| O=c1ccn(-c2ccncc2)nc1-c1ccnn1-c1ccc(F)cc1 [Example 7, 3-[2-(4-Fluoro-phenyl)-2H-pyrazol-3-yl]-1-pyridin-4-yl-1H-pyridazin-4-one] | 183 nM |
| CS(=O)(=O)c1cc(-n2ccc(=O)c(-c3ccnn3-c3cccc4ccccc34)n2)ccn1 [Example 16, 1-(2-Methanesulfonyl-pyridin-4-yl)-3-(2-naphthalen-1-yl-2H-pyrazol-3-yl)-1H-pyridazin-4-one] | 15 nM |
| N#Cc1cc(-n2ccc(=O)c(-c3ccnn3-c3cccc(F)c3)n2)ccn1 [Example 44, 4-{3-[2-(3-Fluoro-phenyl)-2H-pyrazol-3-yl]-4-oxo-4H-pyridazin-1-yl}-pyridine-2-carbonitrile] | 2290 nM |
| O=c1ccn(-c2ccncc2)nc1-c1ccnn1-c1cccc2ccncc12 [Example 27, 3-(2-Isoquinolin-8-yl-2H-pyrazol-3-yl)-1-pyridin-4-yl-1H-pyridazin-4-one] | 126 nM |
| O=c1ccn(-c2ccc(Cl)nc2)nc1-c1ccnn1-c1ccccc1F [Example 77, 1-(6-Chloro-pyridin-3-yl)-3-[2-(2-fluoro-phenyl)-2H-pyrazol-3-yl]-1H-pyridazin-4-one] | 183 nM |
| O=c1ccn(-c2ccncc2)nc1-c1ccnn1-c1ccncc1 [Example 31, 1-Pyridin-4-yl-3-(2-pyridin-4-yl-2H-pyrazol-3-yl)-1H-pyridazin-4-one] | 811 nM |
| O=c1ccn(-c2ccncc2)nc1-c1ccnn1-c1cccc(Cl)c1 [Example 18, 3-[2-(3-Chloro-phenyl)-2H-pyrazol-3-yl]-1-pyridin-4-yl-1H-pyridazin-4-one] | 140 nM |
| O=c1ccn(-c2ccnc(Cl)c2)nc1-c1ccnn1-c1ccnc(Cl)c1 [Example 57, 1-(2-Chloro-pyridin-4-yl)-3-[2-(2-chloro-pyridin-4-yl)-2H-pyrazol-3-yl]-1H-pyridazin-4-one] | 1540 nM |
| O=c1ccn(-c2ccncc2)nc1-c1ccnn1-c1cccc(Br)c1 [Example 97, 3-[2-(3-Bromo-phenyl)-2H-pyrazol-3-yl]-1-pyridin-4-yl-1H-pyridazin-4-one] | 17 nM |
| O=c1ccn(-c2cccnc2)nc1-c1ccnn1-c1ccc2c(c1)OCO2 [Example 32, 3-(2-Benzo[1,3]dioxol-5-yl-2H-pyrazol-3-yl)-1-pyridin-3-yl-1H-pyridazin-4-one] | 150 nM |
| O=c1ccn(-c2cncc(C(F)(F)F)c2)nc1-c1ccnn1-c1ccccc1F [Example 68, 3-[2-(2-Fluoro-phenyl)-2H-pyrazol-3-yl]-1-(5-trifluoromethyl-pyridin-3-yl)-1H-pyridazin-4-one] | 178 nM |
| O=c1ccn(-c2ccc(C(F)(F)F)nc2)nc1-c1ccnn1-c1cccc2ncccc12 [Example 80, 3-(2-Quinolin-5-yl-2H-pyrazol-3-yl)-1-(6-trifluoromethyl-pyridin-3-yl)-1H-pyridazin-4-one] | 72 nM |
| O=c1ccn(-c2ccncc2)nc1-c1ccnn1-c1ccc(Cl)cc1 [Example 6, 3-[2-(4-Chloro-phenyl)-2H-pyrazol-3-yl]-1-pyridin-4-yl-1H-pyridazin-4-one] | 188 nM |
| O=c1ccn(-c2cnc3ccccc3c2)nc1-c1ccnn1-c1ccccc1F [Example 78, 3-[2-(2-Fluoro-phenyl)-2H-pyrazol-3-yl]-1-quinolin-3-yl-1H-pyridazin-4-one] | 38 nM |
| N#Cc1ccc(-n2ccc(=O)c(-c3ccnn3-c3ccccc3F)n2)cn1 [Example 76, 5-{3-[2-(2-Fluoro-phenyl)-2H-pyrazol-3-yl]-4-oxo-4H-pyridazin-1-yl}-pyridine-2-carbonitrile] | 619 nM |
| O=c1ccn(-c2cncc(OC(F)F)c2)nc1-c1ccnn1-c1ccccc1F [Example 74, 1-(5-Difluoromethoxy-pyridin-3-yl)-3-[2-(2-fluoro-phenyl)-2H-pyrazol-3-yl]-1H-pyridazin-4-one] | 27 nM |

Other lines, results leading:

| IC50 | Structure (SMILES) |
| --- | --- |
| 89 nM | O=c1ccn(-c2ccnc(Cl)c2)nc1-c1ccnn1-c1cccc2ncccc12 [Example 58, 1-(2-Chloro-pyridin-4-yl)-3-(2-quinolin-5-yl-2H-pyrazol-3-yl)-1H-pyridazin-4-one] |
| 11 nM | O=c1ccn(-c2ccnc(Cl)c2)nc1-c1ccnn1-c1cccc2ccccc12 [Example 13, 1-(2-Chloro-pyridin-4-yl)-3-(2-naphthalen-1-yl-2H-pyrazol-3-yl)-1H-pyridazin-4-one] |
| 2560 nM | Cc1cc(-n2ccc(=O)c(-c3ccnn3-c3cccc(F)c3)n2)ccn1 [Example 39, 3-[2-(3-Fluoro-phenyl)-2H-pyrazol-3-yl]-1-(2-methyl-pyridin-4-yl)-1H-pyridazin-4-one] |
| 352 nM | O=c1ccn(-c2cccnc2)nc1-c1ccnn1-c1cc(F)ccc1F [Example 47, 3-[2-(2,5-Difluoro-phenyl)-2H-pyrazol-3-yl]-1-pyridin-3-yl-1H-pyridazin-4-one] |
| 46 nM | Cc1cc(-n2ccc(=O)c(-c3ccnn3-c3cccc4cnccc34)n2)ccn1 [Example 85, 3-(2-Isoquinolin-5-yl-2H-pyrazol-3-yl)-1-(2-methyl-pyridin-4-yl)-1H-pyridazin-4-one] |
| 20 nM | O=c1ccn(-c2ccc3ncccc3c2)nc1-c1ccnn1-c1ccccc1F [Example 102, 3-[2-(2-Fluoro-phenyl)-2H-pyrazol-3-yl]-1-quinolin-6-yl-1H-pyridazin-4-one] |
| 35 nM | O=c1ccn(-c2ccncc2)nc1-c1ccnn1-c1cccc2ncccc12 [Example 22, 1-Pyridin-4-yl-3-(2-quinolin-5-yl-2H-pyrazol-3-yl)-1H-pyridazin-4-one] |
| 78 nM | O=c1ccn(-c2cncc(Cl)c2)nc1-c1ccnn1-c1cccc2ncccc12 [Example 60, 1-(5-Chloro-pyridin-3-yl)-3-(2-quinolin-5-yl-2H-pyrazol-3-yl)-1H-pyridazin-4-one] |
| 90 nM | Cc1cncc(-n2ccc(=O)c(-c3ccnn3-c3ccccc3F)n2)c1 [Example 90, 3-[2-(2-Fluoro-phenyl)-2H-pyrazol-3-yl]-1-(5-methyl-pyridin-3-yl)-1H-pyridazin-4-one] |
| 285 nM | O=c1ccn(-c2cccnc2)nc1-c1ccnn1-c1cccc(F)c1 [Example 35, 3-[2-(3-Fluoro-phenyl)-2H-pyrazol-3-yl]-1-pyridin-3-yl-1H-pyridazin-4-one] |
| 56 nM | O=c1ccn(-c2cncc(C(F)(F)F)c2)nc1-c1ccnn1-c1cccc(Cl)c1 [Example 67, 3-[2-(3-Chloro-phenyl)-2H-pyrazol-3-yl]-1-(5-trifluoromethyl-pyridin-3-yl)-1H-pyridazin-4-one] |
| 50 nM | O=c1ccn(-c2ccnc(Cl)c2)nc1-c1ccnn1-c1cccc(Cl)c1 [Example 56, 3-[2-(3-Chloro-phenyl)-2H-pyrazol-3-yl]-1-(2-chloro-pyridin-4-yl)-1H-pyridazin-4-one] |
| 56 nM | O=c1ccn(-c2cncc(C(F)(F)F)c2)nc1-c1ccnn1-c1ccnc2ccccc12 [Example 71, 3-(2-Quinolin-4-yl-2H-pyrazol-3-yl)-1-(5-trifluoromethyl-pyridin-3-yl)-1H-pyridazin-4-one] |
| 148 nM | O=c1ccn(-c2cncc(Cl)c2)nc1-c1ccnn1-c1ccccc1F [Example 64, 1-(5-Chloro-pyridin-3-yl)-3-[2-(2-fluoro-phenyl)-2H-pyrazol-3-yl]-1H-pyridazin-4-one] |
| 177 nM | O=c1ccn(-c2cncc(Cl)c2)nc1-c1ccnn1-c1ccnc2ccc(F)cc12 [Example 52, 1-(5-Chloro-pyridin-3-yl)-3-[2-(6-fluoro-quinolin-4-yl)-2H-pyrazol-3-yl]-1H-pyridazin-4-one] |
